Tests used:
[1] = target: T1, rat mGlu1a receptor (Rattus norvegicus, UniProt P23385); assay: [Ca2+]i measurement (FLIPR) on mGlu1a transfected EBNA cells; type: cell-based; conditions: agonist activity, rat mGlu1a transiently transfected EBNA cells, Fluo-3 AM
T1 construct: expressed in transfected cells; host or cells: EBNA cells (transient transfection)
Protocol: cDNA encoding for rat mGlu1a receptor obtained from Prof. S. Nakanishi (Kyoto, Japan) was transiently transfected into EBNA cells using a procedure described by Schlaeger & Christensen, 1998. [Ca^2+]i measurement were performed on mGlu1a transfected EBNA cells after incubation of the cells with Fluo-3 AM (0.5 μM final concentration) for 1 hour at 37° C. followed by 4 washes with assay buffer (DMEM supplemented with Hank's salt and 20 mM HEPES). [Ca^2+]i measurement were done using a fluorometric imaging plate reader (FLIPR, Molecular Devices Corporation, La Jolla, Calif., USA). When compounds were evaluated as antagonists they were tested against 10 μM glutamate as agonist.
The inhibition (antagonists) or activation (agonists) curves were fitted with a four parameter logistic equation giving EC50, IC50 and Hill coefficient using the iterative non linear curve fitting software Origin (Microcal Software Inc., Northampton, Mass., USA). E.-J. Schlaeger and K. Christensen Transient gene expression in mammalian cells grown in serum-free suspension culture. Cytotechnology, 30:71-83, 1999.

T1 sequence (P23385 19-1199): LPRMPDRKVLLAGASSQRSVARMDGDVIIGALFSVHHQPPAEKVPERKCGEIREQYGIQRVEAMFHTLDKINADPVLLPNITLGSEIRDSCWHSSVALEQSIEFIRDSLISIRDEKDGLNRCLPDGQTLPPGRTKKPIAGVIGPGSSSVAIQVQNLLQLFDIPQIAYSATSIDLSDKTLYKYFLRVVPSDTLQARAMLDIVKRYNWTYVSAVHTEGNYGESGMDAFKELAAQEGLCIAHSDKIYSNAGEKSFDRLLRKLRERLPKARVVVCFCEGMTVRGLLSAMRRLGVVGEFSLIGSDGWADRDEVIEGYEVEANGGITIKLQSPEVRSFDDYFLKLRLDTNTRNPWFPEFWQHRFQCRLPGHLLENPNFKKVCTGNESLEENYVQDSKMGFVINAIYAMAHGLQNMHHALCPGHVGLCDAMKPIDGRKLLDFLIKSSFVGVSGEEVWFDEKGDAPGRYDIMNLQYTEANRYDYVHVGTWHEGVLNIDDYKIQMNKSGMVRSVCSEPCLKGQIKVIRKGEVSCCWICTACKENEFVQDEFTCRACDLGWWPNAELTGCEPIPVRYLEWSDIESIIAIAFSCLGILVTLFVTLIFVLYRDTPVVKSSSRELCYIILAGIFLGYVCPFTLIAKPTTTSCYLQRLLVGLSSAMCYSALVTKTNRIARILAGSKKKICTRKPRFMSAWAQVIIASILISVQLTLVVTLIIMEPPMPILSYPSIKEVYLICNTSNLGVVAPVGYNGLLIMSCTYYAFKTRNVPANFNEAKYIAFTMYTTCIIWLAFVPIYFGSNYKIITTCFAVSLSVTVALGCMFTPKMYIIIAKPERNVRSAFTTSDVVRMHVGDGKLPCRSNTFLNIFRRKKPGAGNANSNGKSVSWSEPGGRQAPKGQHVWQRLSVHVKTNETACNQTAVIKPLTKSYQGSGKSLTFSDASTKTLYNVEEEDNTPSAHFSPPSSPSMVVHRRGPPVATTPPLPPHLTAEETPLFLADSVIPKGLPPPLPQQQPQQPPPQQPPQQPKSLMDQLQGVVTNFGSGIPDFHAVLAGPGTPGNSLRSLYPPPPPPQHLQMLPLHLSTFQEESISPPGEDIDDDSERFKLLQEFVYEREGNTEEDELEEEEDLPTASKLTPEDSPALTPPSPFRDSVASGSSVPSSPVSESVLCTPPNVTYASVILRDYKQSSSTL

Row | Compound | melting point | EC50 [1] [µM]
1 | COCn1nnc(NC(=O)C(c2ccccc2)c2ccccc2)n1 [Example 13, N-(2-Methoxymethyl-2H-tetrazol-5-yl)-2,2-diphenyl-acetamide] | 127 to 128 °C | 
2 | COCn1nnc(NC(=O)C2c3ccccc3Oc3ccccc32)n1 [Example 14, 9H-Xanthene-9-carboxylic acid (2-methoxymethyl-2H-tetrazol-5-yl)-amide] | 221 to 222 °C | 
3 | CCn1nnc(NC(=O)C(c2ccccc2)c2ccccc2)n1 [Example 3, N-(2-Ethyl-2H-tetrazol-5-yl)-2,2-diphenyl-acetamide] | 169 to 170 °C | 
4 | O=C(Nc1nnn(CC2CC2)n1)C1c2ccccc2Oc2ccccc21 [Example 6, 9H-Xanthene-9-carboxylic acid (2-cyclopropylmethyl-2H-tetrazol-5-yl)-amide] | 222 to 224 °C | 
5 | O=C(Nc1nnn(CC2CC2)n1)C(c1ccccc1)c1ccccc1 [Example 5, N-(2-Cyclopropylmethyl-2H-tetrazol-5-yl)-2,2-diphenyl-acetamide] | 147 to 148 °C | 
6 | CC(C)(C)n1nnc(NC(=O)C2c3ccccc3Oc3ccccc32)n1 [Example 16, 9H-Xanthene-9-carboxylic acid (2-tert-butyl-2H-tetrazol-5-yl)-amide] | 230 to 231 °C | 
7 | Cn1nnc(NC(=O)C(c2ccccc2)c2ccccc2)n1 [Example 1, N-(2-Methyl-2H-tetrazol-5-yl)-2,2-diphenyl-acetamide] | 218 °C (dec.) | 0.22
8 | CCCn1nnc(NC(=O)C(c2ccccc2)c2ccccc2)n1 [Example 11, 2,2-Diphenyl-N-(2-propyl-2H-tetrazol-5-yl)-acetamide] | 124 to 125 °C | 
9 | Cn1nnc(NC(=O)C2c3ccccc3Oc3ccccc32)n1 [Example 2, 9-Xanthene-9-carboxylic acid (2-methyl-2H-tetrazol-5-yl)-amide] | 247 °C (dec.) | 0.18
10 | CCCn1nnc(NC(=O)C2c3ccccc3Oc3ccccc32)n1 [Example 12, 9H-Xanthene-9-carboxylic acid (2-propyl-2H-tetrazol-5-yl)-amide] | 208 to 209 °C | 
11 | O=C(Nc1nnn(CC(F)(F)F)n1)C1c2ccccc2Oc2ccccc21 [Example 10, 9H-Xanthene-9-carboxylic acid [2-(2,2,2-trifluoro-ethyl)-2H-tetrazol-5-yl]-amide] | 209 to 210 °C | 0.17
12 | CC(C)n1nnc(NC(=O)C2c3ccccc3Oc3ccccc32)n1 [Example 8, 9H-Xanthene-9-carboxylic acid (2-isopropyl-2H-tetrazol-5-yl)-amide] |  | 0.045
13 | CCn1nnc(NC(=O)C2c3ccccc3Oc3ccccc32)n1 [Example 4, 9H-Xanthene-9-carboxylic acid (2-ethyl-2H-tetrazol-5-yl)-amide] | 228 °C (dec.) | 
14 | O=C(Nc1nnn(CC(F)(F)F)n1)C(c1ccccc1)c1ccccc1 [Example 9, 2,2-Diphenyl-N-[2-(2,2,2-trifluoro-ethyl)-2H-tetrazol-5-yl]-acetamide] | 146 to 148 °C | 2
15 | CC(C)(C)n1nnc(NC(=O)C(c2ccccc2)c2ccccc2)n1 [Example 15, N-(2-tert-Butyl-2H-tetrazol-5-yl)-2,2-diphenyl-acetamide] | 191 to 192 °C | 
16 | CC(C)n1nnc(NC(=O)C(c2ccccc2)c2ccccc2)n1 [Example 7, N-(2-Isopropyl-2H-tetrazol-5-yl)-2,2-diphenyl-acetamide] | 175 to 177 °C | 0.1
17 | O=C(Nc1nnn(C(F)F)n1)C(c1ccccc1)c1ccccc1 [Example 17, N-(2-Difluoromethyl-2H-tetrazol-5-yl)-2,2-diphenyl-acetamide] | 143 to 145 °C | 

Second part, the compound after the results:

Row | melting point | EC50 [1] [µM] | Compound
18 | 168 to 169 °C |  | O=C(Nc1nnn(C(F)F)n1)C1c2ccccc2Oc2ccccc21 [Example 18, 9H-Xanthene-9-carboxylic acid (2-difluoromethyl-2H-tetrazol-5-yl)-amide]
19 | 204 to 205 °C |  | N#CCn1nnc(NC(=O)C2c3ccccc3Oc3ccccc32)n1 [Example 20, 9H-Xanthene-9-carboxylic acid (2-cyanomethyl-2H-tetrazol-5-yl)-amide]
20 | 206 to 207 °C |  | CCn1nnc(NC(=O)C2c3ccccc3Cc3ccccc32)n1 [Example 23, 9,10-Dihydro-anthracene-9-carboxylic acid (2-ethyl-2H-tetrazol-5-yl)-amide]
21 | 173 to 174 °C |  | N#CCn1nnc(NC(=O)C(c2ccccc2)c2ccccc2)n1 [Example 19, N-(2-Cyanomethyl-2H-tetrazol-5-yl)-2,2-diphenyl-acetamide]
22 | 168 to 169 °C |  | COC(=O)Cn1nnc(NC(=O)C(c2ccccc2)c2ccccc2)n1 [Example 21, (5-Diphenylacetylamino-tetrazol-2-yl)-acetic acid methyl ester]
23 | 239 to 240 °C (dec.) |  | CCn1nnc(NC(=O)C2c3ccccc3Oc3c(OC)cccc32)n1 (racemic) [Example 28, (RS)-4-Methoxy-9H-xanthene-9-carboxylic acid (2-ethyl-2H-tetrazol-5-yl)-amide]
24 | 158 to 159 °C | 0.47 | CCn1nnc(NC(=O)C2c3ccccc3COc3ccccc32)n1 (racemic) [Example 24, (RS)-6,11 -Dihydro-dibenzo[b,e]oxepine-11-carboxylic acid (2-ethyl-2H-tetrazol-5-yl)-amide]
25 | 259 to 260 °C (dec.) |  | CCn1nnc(NC(=O)C2c3ccccc3Oc3cccc(OC)c32)n1 (racemic) [Example 26, (RS)-1-Methoxy-9H-xanthene-9-carboxylic acid (2-ethyl-2H-tetrazol-5-yl)-amide]
26 | 208 to 210 °C (dec.) | 0.19 | CCn1nnc(NC(=O)C2c3ccccc3Oc3ccc(OC)cc32)n1 (racemic) [Example 27, (RS)-2-Methoxy-9H-xanthene-9-carboxylic acid (2-ethyl-2H-tetrazol-5-yl)-amide]
27 |  | 1.39 | 9H-Thioxanthene-9-carboxylic acid (2-ethyl-2H-tetrazol-5-yl)-amide [Example 25]
28 | 243 to 244 °C |  | COC(=O)Cn1nnc(NC(=O)C2c3ccccc3Oc3ccccc32)n1 [Example 22, {5-[(9H-Xanthene-9-carbonyl)-amino]-tetrazol-2-yl}-acetic acid methyl ester]

Source: patent US6399641B1, “2H-tetrazole-amide compounds with therapeutic activity as metabotropic glutamate receptor agonists” (Hoffmann-la Roche Inc., priority 2000, dated 2002)
